# Measured values: patent US20230339970A1, “CASEIN KINASE 1 DELTA MODULATORS” (priority 2020, published 2023)
# Key:
# [1] = target: T1, human recombinant GST cleaved CSNK1D (Homo sapiens, UniProt P48730); test: Purified Enzyme Assay (ADP-Glo CSNK1D Kinase Assay); format: biochemical; conditions: 2 nM CSNK1D; peptide substrate 150 μM; ATP 20 μM; 45 minutes at room temperature
# T1 construct: GST (cleaved yes); purchased University of Dundee clone DU 19064
# Procedure: In this assay, CSNK1D phosphorylates a substrate peptide PLSRTL-pS-VASLPGL in the presence of ATP. […] This assay monitors CSNK1D kinase activity by measuring the amount of ADP produced in the assay.
# The substrate mix is added to each well of a low volume, 384-well, white opaque plate. Test compounds were diluted in HBSS and added in a dose-response to the plate.
# The total volume of each reaction is 5 ul (2 μL of substrate mix, 1 μL of diluted compounds, and 2 μL of human recombinant CSNK1D). The plates are incubated for 45 minutes at room temperature.
# ADP was quantified using the ADP-Glo™ Kinase Assay. ADP-Glo Reagent (5 μL) was added to each well. After a 1 hour incubation at room temperature, Kinase Detection Reagent (10 μL) was added to each well and incubated for 30 minutes. […] The raw data from the Envision is used to calculate percent activity.
# human CSNK1D = target: T2, human CSNK1D (Homo sapiens, UniProt P48730); test: Whole Cell nBRET CSNK1D Binding Assay; conditions: living CHO cells stably expressing human CSNK1D tagged with nanoluciferase; NanoBret tracer 130 nM; 2 hours at 37 C
# T2 construct: expressed in transfected cells
# T2 sequence (P48730 whole entry): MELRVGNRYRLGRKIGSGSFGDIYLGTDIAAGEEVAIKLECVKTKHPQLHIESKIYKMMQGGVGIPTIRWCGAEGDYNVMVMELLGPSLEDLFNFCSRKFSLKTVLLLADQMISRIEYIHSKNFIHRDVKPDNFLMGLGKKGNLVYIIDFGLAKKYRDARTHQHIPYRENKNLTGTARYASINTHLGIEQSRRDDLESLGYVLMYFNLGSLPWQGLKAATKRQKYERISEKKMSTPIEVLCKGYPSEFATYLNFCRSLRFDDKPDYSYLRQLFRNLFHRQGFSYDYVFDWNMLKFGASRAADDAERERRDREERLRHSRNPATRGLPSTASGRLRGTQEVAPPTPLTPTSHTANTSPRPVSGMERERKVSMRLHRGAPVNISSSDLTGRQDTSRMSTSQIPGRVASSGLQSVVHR
# T1 sequence (P48730 whole entry): as above
IC50 [1] [nM],IC50 (human CSNK1D) [nM],SMILES
3,80,"Fc1ccc(-c2nn3c(c2-c2ccnc4[nH]ncc24)[C@@H](Cl)C[C@]2(C3)CC2(F)F)nc1 (single isomer, unassigned) [Example 337, (1*S,4′*S)-4′-Chloro-2,2-difluoro-2′-(5-fluoropyridin-2-yl)-3′-(1H-pyrazolo[3,4-b]pyridin-4-yl)-4′,5′-dihydro-7′H-spiro[cyclopropane-1,6′-pyrazolo[1,5-a]pyridine]]"
92,1190,"[2H]C([2H])([2H])[C@]1(C(F)(F)F)Cn2nc(-c3ccc(F)cn3)c(-c3c(F)c(C)nc4[nH]nc(C)c34)c2CO1 (single isomer, unassigned) [Example 430, (*R)-3-(5-Fluoro-3,6-dimethyl-1H-pyrazolo[3,4-b]pyridin-4-yl)-2-(5-fluoropyridin-2-yl)-6-(methyl-d3)-6-(trifluoromethyl)-6,7-dihydro-4H-pyrazolo[5,1-c][1,4]oxazine]"
55,697,"Fc1ccc(-c2nn3c(c2-c2ccnc4[nH]ncc24)CO[C@H](C(F)(F)F)C3)cc1 [Example 100, (S)-2-(4-Fluorophenyl)-3-(1H-pyrazolo[3,4-b]pyridin-4-yl)-6-(trifluoromethyl)-6,7-dihydro-4H-pyrazolo[5,1-c][1,4]oxazine]"
38,279,"Cc1cc(-c2c(-c3ccc(F)cn3)nn3c2OCCCC3)c2cn[nH]c2n1 [Example 219, 2-(5-Fluoro-2-pyridyl)-3-(6-methyl-1H-pyrazolo[3,4-b]pyridin-4-yl)-5,6,7,8-tetrahydropyrazolo[5,1-b][1,3]oxazepane]"
2,22,"Fc1ccc(-c2nn3c(c2-c2c(F)cnc4[nH]ncc24)CCC2(C3)CC2(F)F)nc1 (single isomer, unassigned) [Example 330, (*R)-2,2-Difluoro-3′-(5-fluoro-1H-pyrazolo[3,4-b]pyridin-4-yl)-2′-(5-fluoropyridin-2-yl)-4′,5′-dihydro-7′H-spiro[cyclopropane-1,6′-pyrazolo[1,5-a]pyridine]]"
5,54,"C[C@H]1n2nc(-c3ccc(F)cc3)c(-c3ccnc4[nH]ncc34)c2COC1(C)C (single isomer, unassigned) [Example 172]"
3,59,"CC1CCn2nc(-c3ccc(F)cn3)c(-c3ccnc4[nH]ncc34)c2O1 (single isomer, unassigned) [Example 198, (*S)-2-(5-Fluoro-2-pyridyl)-5-methyl-3-(1H-pyrazolo[3,4-b]pyridin-4-yl)-6,7-dihydro-5H-pyrazolo[5,1-b][1,3]oxazine]"
3,24,"Cc1nc2[nH]ncc2c(-c2c(-c3ccc(F)cn3)nn3c2CO[C@@](C)(C(F)(F)F)C3)c1F (single isomer, unassigned) [Example 420, (*R)-3-(5-Fluoro-6-methyl-1H-pyrazolo[3,4-b]pyridin-4-yl)-2-(5-fluoropyridin-2-yl)-6-methyl-6-(trifluoromethyl)-6,7-dihydro-4H-pyrazolo[5,1-c][1,4]oxazine]"
60,1410,"Fc1ccc(-c2nn3c(c2-c2ccnc4[nH]ncc24)C[C@H]2[C@@H](C3)C2(F)F)cc1 (stereo in doubt) [Example 363, (4a*S,5a*S)-5,5-Difluoro-2-(4-fluorophenyl)-3-(1H-pyrazolo[3,4-b]pyridin-4-yl)-4a,5,5a,6-tetrahydro-4H-cyclopropa[d]pyrazolo[1,5-a]pyridine]"
44,570,"CCn1ncc2cc(-c3c(-c4ccc(F)cn4)nn4c3OCC(C)(C)C4)cnc21 [Example 452, 3-(1-Ethyl-1H-pyrazolo[3,4-b]pyridin-5-yl)-2-(5-fluoropyridin-2-yl)-6,6-dimethyl-6,7-dihydro-5H-pyrazolo[5,1-b][1,3]oxazine]"
12,139,"Fc1cnc(-c2nn3c(c2-c2ccnc4[nH]ncc24)OCCC3)c(F)c1 [Example 188, 2-(3,5-Difluoro-2-pyridyl)-3-(1H-pyrazolo[3,4-b]pyridin-4-yl)-6,7-dihydro-5H-pyrazolo[5,1-b][1,3]oxazine]"
18,359,"CC1(C)Cn2nc(-c3ccc(Cl)cn3)c(-c3ccnc4[nH]ncc34)c2CO1 [Example 146, 2-(5-Chloropyridin-2-yl)-6,6-dimethyl-3-(1H-pyrazolo[3,4-b]pyridin-4-yl)-6,7-dihydro-4H-pyrazolo[5,1-c][1,4]oxazine]"
5,75,"[2H]C([2H])([2H])C1(C([2H])([2H])[2H])Cn2nc(-c3ccc(F)cn3)c(-c3cc(C(F)F)nc4[nH]ncc34)c2CO1 [Example 402, 3-(6-(Difluoromethyl)-1H-pyrazolo[3,4-b]pyridin-4-yl)-2-(5-fluoropyridin-2-yl)-6,6-bis(methyl-d3)-6,7-dihydro-4H-pyrazolo[5,1-c][1,4]oxazine]"
4,41,"C[C@H]1CCCc2c(-c3ccnc4[nH]ncc34)c(-c3ccc(F)cc3)nn21 (single isomer, unassigned) [Example 40, (*S)-4-[2-(4-Fluorophenyl)-7-methyl-4,5,6,7-tetrahydropyrazolo[1,5-a]pyridin-3-yl]-1H-pyrazolo[3,4-b]pyridine]"
8,330,"C[C@]1(C(F)(F)F)Cn2nc(-c3ccc(F)cn3)c(-c3ccn4nccc4c3)c2CO1 (single isomer, unassigned) [Example 414, (*R)-2-(5-Fluoropyridin-2-yl)-6-methyl-3-(pyrazolo[1,5-a]pyridin-5-yl)-6-(trifluoromethyl)-6,7-dihydro-4H-pyrazolo[5,1-c][1,4]oxazine]"
14,97,"Fc1ccc(-c2nn3c(c2-c2ccnc4[nH]ncc24)CCC2(C3)CC2(F)F)nc1 (single isomer, unassigned) [Example 327, (*S)-2,2-Difluoro-2′-(5-fluoropyridin-2-yl)-3′-(1H-pyrazolo[3,4-b]pyridin-4-yl)-4′,5′-dihydro-7′H-spiro[cyclopropane-1,6′-pyrazolo[1,5-a]pyridine]]"
30,581,"CC1COc2c(-c3ccn4nccc4c3)c(-c3ccc(F)cn3)nn2C1 (centres unmarked) [Example 443, 2-(5-Fluoropyridin-2-yl)-6-methyl-3-(pyrazolo[1,5-a]pyridin-5-yl)-6,7-dihydro-5H-pyrazolo[5,1-b][1,3]oxazine]"
10,210,"CCC(=O)Nc1cc(-c2c(-c3ccc(F)cn3)nn3c2OCCC3C)ccn1 (centres unmarked) [Example 445, N-(4-(2-(5-Fluoropyridin-2-yl)-7-methyl-6,7-dihydro-5H-pyrazolo[5,1-b][1,3]oxazin-3-yl)pyridin-2-yl)propionamide]"
10,48,"Fc1ccc(-c2nn3c(c2-c2ccn4nccc4c2)C[C@H](F)C3)cc1 [Example 226, 5-[(5S)-5-Fluoro-2-(4-fluorophenyl)-5,6-dihydro-4H-pyrrolo[1,2-b]pyrazol-3-yl]pyrazolo[1,5-a]pyridine]"
50,1300,"CC(=O)Nc1cc(-c2c(-c3ccc(F)cn3)nn3c2CC[C@@H]2[C@H]3C2(F)F)ccn1 (stereo in doubt) [Example 352, N-(4-((5a*R,6a*S)-6,6-Difluoro-2-(5-fluoropyridin-2-yl)-5,5a,6,6a-tetrahydro-4H-cyclopropa[e]pyrazolo[1,5-a]pyridin-3-yl)pyridin-2-yl)acetamide]"
5,15,"Cc1cc(-c2c(-c3ccc(F)cn3)nn3c2C[C@@]2(C3)CC2(F)F)c2c(Cl)n[nH]c2n1 (single isomer, unassigned) [Example 262, (*S)-3′-(3-Chloro-6-methyl-1H-pyrazolo[3,4-b]pyridin-4-yl)-2,2-difluoro-2′-(5-fluoropyridin-2-yl)-4′H,6′H-spiro[cyclopropane-1,5′-pyrrolo[1,2-b]pyrazole]]"
197,10800,"Fc1ccc(-c2nn3c(c2-c2ccnc4[nH]nc(Cl)c24)CC2(C3)CC2(F)F)nc1 (single isomer, unassigned) [Example 257, (*R)-3-(3-Chloro-1H-pyrazolo[3,4-b]pyridin-4-yl)-1′,1′-difluoro-2-(5-fluoro-2-pyridyl)spiro[4,6-dihydropyrrolo[1,2-b]pyrazole-5,2′-cyclopropane]]"
–,15,"FCC1Cn2nc(-c3ccc(F)cc3)c(-c3cnc4[nH]ncc4c3)c2CO1 (centres unmarked) [Example 103, 6-(Fluoromethyl)-2-(4-fluorophenyl)-3-(1H-pyrazolo[3,4-b]pyridin-5-yl)-6,7-dihydro-4H-pyrazolo[5,1-c][1,4]oxazine]"
–,37,"CC1(CC2COC2)CCc2c(-c3ccnc4[nH]ncc34)c(-c3ccc(F)cn3)nn2C1 (single isomer, unassigned) [Example 321, (*S)-4-(2-(5-Fluoropyridin-2-yl)-6-methyl-6-(oxetan-3-ylmethyl)-4,5,6,7-tetrahydropyrazolo[1,5-a]pyridin-3-yl)-1H-pyrazolo[3,4-b]pyridine]"
–,54,"Fc1ccc(-c2nn3c(c2-c2ccnc4[nH]ncc24)COC(C(F)(F)F)C3)cc1 (centres unmarked) [Example 99, 2-(4-Fluorophenyl)-3-(1H-pyrazolo[3,4-b]pyridin-4-yl)-6-(trifluoromethyl)-6,7-dihydro-4H-pyrazolo[5,1-c][1,4]oxazine]"
